Measured values from patent US10220033B2, “Substituted benzoxazepine for cancer therapy” (University of Cape Town, priority 2014, dated 2019).
Like-named read-outs stand apart in the source and are kept apart here.

Assays:
WHCO6 tumours = experiment: Xenograft tumour model; type: in vivo; settings: female nude mice, 50 mg/kg i.p. every 2-3 days for 3 weeks (FIG. 28)
Description: WHCO6 cells were harvested and resuspended in PBS. For tumour inoculation, cancer cells (5×10^6 per mouse) were s.c. implanted into the hind flanks of female nude mice. Once tumours had reached a palpable size, drug treatment was initiated, where tumour-bearing mice were randomized and dosed i.p. with either vehicle (DMSO) or Compound A (50 mg/kg), every 2-3 days for 3 weeks. Tumour volumes were measured twice a week, using calipers, and tumour volume estimated using the following formula: volume=(length×width×width)/2. Mice were sacrificed 3 weeks after the commencement of drug treatment.

HeLa and KYSE30 cells = experiment: Anchorage-independent colony formation; type: cell-based; settings: 10 μM; polyheme-coated plates, 9 days (FIG. 23)
Description: The anchorage-independent proliferation of cancer cells was measured in response to Compound A treatment, as cells grown in this manner are more representative of tumour cells in vivo. Cells were grown on polyheme-coated plates and cell proliferation monitored 9 days after treatment, using MTT assays.

[1] = system: WHCO1 oesophageal carcinoma cell line; experiment: MTT assay for cell viability, IC50 determination; type: cell-based; settings: Homo sapiens, 48 hours
Description: (§1) Cells were plated in 96-well plates and treated with varying concentrations of a test compound for 48 hours, after which MTT dye, 3-(4,5-dimethylthiazol-2-yl)-2,5-diphenyltetrazolium bromide (Sigma), was added, and crystals solubilised 4 hours later using Solubilisation Reagent (10% SLS in 0.01 M HCl). Absorbencies were measured at 595 nm the following day using a BioTek microplate spectrophotometer (Winooski, Vt., USA) and IC50 curves were generated using GraphPad Prism.

[2] = system: CaSki cervical cancer cell line; experiment: MTT assay for cell viability, IC50 determination; type: cell-based; settings: MTT, read-out: IC50
Description: as §1

[3] = system: KYSE150 oesophageal cancer cell line; experiment: MTT assay for cell viability, IC50 determination; type: cell-based; settings: Homo sapiens, KYSE-150; KYSE150; 48 hours, MTT
Description: as §1

[4] = MTT assay for cell viability, IC50 determination; type: cell-based; settings: Homo sapiens, MCF-12A; MCF12A; 48 hours, MTT
Description: as §1

[5] = system: A2780 ovarian cancer cell line; experiment: MTT assay for cell viability, IC50 determination; type: cell-based; settings: Homo sapiens, 48 hours
Description: as §1

[6] = system: WI38 non-cancer cell line; experiment: MTT assay for cell viability, IC50 determination; type: cell-based; settings: Homo sapiens, WI-38; WI38 non-cancer; 48 hours, MTT
Description: as §1

[7] = system: HeLa cervical cancer cell line; experiment: MTT assay for cell viability, IC50 determination; type: cell-based; settings: HeLa, 48 hours, MTT, read-out: IC50
Description: as §1

[8] = system: KYSE180 oesophageal cancer cell line; experiment: MTT assay for cell viability, IC50 determination; type: cell-based; settings: Homo sapiens, KYSE-180, 48 hours
Description: as §1

[9] = system: DMB normal skin fibroblasts (non-cancer); experiment: MTT assay for cell viability, IC50 determination; type: cell-based; settings: Skin fibroblast; DMB non-cancer; 48 hours, MTT
Description: as §1

[10] = system: FG0 normal skin fibroblasts (non-cancer); experiment: MTT assay for cell viability, IC50 determination; type: cell-based; settings: Skin fibroblast, 48 hours
Description: as §1

[11] = system: MDA-MB-231 breast cancer cell line; experiment: MTT assay for cell viability, IC50 determination; type: cell-based; settings: Homo sapiens, 48 hours, MTT
Description: as §1

[12] = system: SVWI38 transformed cell line; experiment: MTT assay for cell viability, IC50 determination; type: cell-based; settings: SVWI38 transformed; 48 hours, MTT
Description: as §1

[13] = system: OVCAR3 ovarian cancer cell line; experiment: MTT assay for cell viability, IC50 determination; type: cell-based; settings: Homo sapiens, OVCAR-3, 48 hours
Description: as §1

[14] = system: MCF7 breast cancer cell line; experiment: MTT assay for cell viability, IC50 determination; type: cell-based; settings: Homo sapiens, 48 hours, MTT
Description: as §1

[15] = system: WHCO6 oesophageal carcinoma cell line; experiment: MTT assay for cell viability, IC50 determination; type: cell-based; settings: Homo sapiens, 48 hours
Description: as §1

[16] = system: KYSE30 oesophageal cancer cell line; experiment: MTT assay for cell viability, IC50 determination; type: cell-based; settings: Homo sapiens, KYSE-30, 48 hours
Description: as §1

[17] = system: CP70 ovarian cancer cell line; experiment: MTT assay for cell viability, IC50 determination; type: cell-based; settings: 48 hours
Description: as §1

[18] = system: NFAT transcriptional activity in NFAT-transfected HeLa cells; experiment: NFAT luciferase reporter assay; type: cell-based; settings: stimulated with TPA and ionomycin (FIGS. 16-20)
Description: To assay for NFAT luciferase activity, 30 000 HeLa cells were plated per well in 24-well plates, and transfected with 50 ng GFP-NFAT plasmid (Addgene plasmid #24219, gift of Jerry Crabtree (Beals C R, Clipstone N A, Ho S N, Crabtree G R. Nuclear localization of NF-ATc by a calcineurin-dependent, cyclosporin-sensitive intramolecular interaction. Genes Dev 1997 Apr. 1; 11(7):824-34)), 50 ng NFAT-luciferase (Addgene plasmid #10959, gift of Toren Finkel (Ichida M, Finkel T. Ras regulates NFAT3 activity in cardiac myocytes. J Biol Chem 2001 Feb. 2; 276(5):3524-30)), and 5 ng pRL-TK, using 0.4 μl Genecellin™ Transfection Reagent (Celtic Molecular Diagnostics, South Africa). The NFAT-luciferase reporter plasmid contains three tandem repeats of a 30 bp fragment of the IL-2 promoter known to bind NFAT. The following day cells were treated with 10 or 15 μM Compound A and after an overnight incubation, stimulated with 100 nM TPA (Sigma) and 1.3 μM Ionomycin (Santa Cruz Biotechnology, Santa Cruz, Calif., USA) for 5 hours, following which luciferase activity was measured.
An assay for nuclear NFAT following ionomycin and Compound A treatment was carried out, using an NFAT-luciferase reporter that is activated by nuclear NFAT. The phorbol ester TPA was used to co-stimulate NFAT, as it has been shown previously that TPA and ionomycin elicit synergistic stimulation of NFAT luciferase activity (Northrop J P, Ullman K S, Crabtree G R. Characterization of the nuclear and cytoplasmic components of the lymphoid-specific nuclear factor of activated T cells (NF-AT) complex. J Biol Chem 1993 Feb. 5; 268(4):2917-23).

[19] = system: WHCO5 oesophageal cancer cell line; experiment: MTT assay for cell viability, IC50 determination; type: cell-based, human; settings: MTT
Description: as §1

[20] = system: CaSki, HeLa, KYSE30 and WHCO6 cancer cells; experiment: Cell proliferation assay (MTT), cancer cells; type: cell-based
Description: To assay for cell proliferation after Compound A treatment, 5000 cells/well were plated in 96-well plates and treated with 5, 10 or 15 μM Compound A, after which cell proliferation was monitored every 24 hours for four days, using MTT.
This effect was sustained for the full 5 day time period, confirming that there was no population of cells that recovered from the treatment.

IC50 [1]: 10.6 µM
IC50 ([2]; 48 hours): 9.33 µM
IC50 ([2]; Homo sapiens, Ca-Ski, 48 h): 9.33 µM
IC50 [3]: 11.7 µM
IC50 [5]: 5.79 µM
IC50 [7]: 8.77 µM
IC50 ([7]; Homo sapiens, 48 h): 10.2 µM
IC50 [8]: 15.8 µM
IC50 [11]: 7.92 µM
IC50 [13]: 10.5 µM
IC50 [14]: 9.33 µM
IC50 [15]: 12 µM
IC50 [16]: 8.84 µM
IC50 [17]: 7.7 µM
IC50 ([19]; 48 hours): 9.09 µM
IC50 ([19]; Homo sapiens, 48 h): 9.09 µM
SMILES: CN(C)CCCn1c(N)c(-c2nc3ccccc3[nH]2)c2nc3ccccc3nc21 [Compound A, 3-(1H-benzimidazol-2-yl)-1-(3-dimethylaminopropyl)pyrrolo[5,4-b]quinoxalin-2-amine]
tumour growth (normalised tumour volume) (WHCO6 tumours): significantly inhibits tumour growth
anchorage-independent colony formation (HeLa and KYSE30 cells): unable to form colonies
IC50 [4]: 12.7 µM
IC50 [6]: 24 µM
IC50 [9]: 31.4 µM
IC50 [10]: 21.4 µM
IC50 [12]: 10.4 µM
NFAT activation (NFAT-luciferase reporter) [18]: significantly diminished NFAT activation
cell death ([20]; 10 μM (FIG. 22)): 100%
cell death in proliferation assay ([20]; 10 and 15 μM, within 24 hour (FIG. 21 A-D)): complete cell death
